From ChEMBL document CHEMBL1147264, “Tricholomalides A-C, new neurotrophic diterpenes from the mushroom Tricholoma sp” (J Nat Prod, 2003)
Active and inactive are the calls of the source. The calls are words filed in the database; no cut-off is given here.

How the values were obtained:
[1] = test system: PC-12; assay: Induction of neurite outgrowth in rat PC12 cells at 100 uM after 2 days by phase-contrast microscopy; assay type: functional, cell-based
[2] = test system: HeLa; assay: Cytotoxicity against human HeLa cells at 50 ug/mL after 3 days by MTT assay; assay type: functional, cell-based
[3] = test system: PC-12; assay: Induction of neurite outgrowth in rat PC12 cells; assay type: functional, cell-based
[4] = Inhibition of Na(+)/K(+) ATPase

Activity [4] | Structure (SMILES) | Activity [1] | Activity [2] | Activity [3]
– | C=C1CO[C@H]2[C@@H]3C(=O)C[C@@H](C(C)C)[C@]3(C)C[C@H]3OC(=O)C[C@@]3(C)[C@@]12O | Active | inactive | –
– | C=C(CO)[C@]12C=C3C(=O)C[C@@H](C(C)C)[C@]3(C)C[C@@H](O)[C@@]1(C)CC(=O)O2 | Active | inactive | –
– | C=C(CO)[C@@]1(O)C=C2C(=O)C[C@@H](C(C)C)[C@]2(C)C[C@H]2OC(=O)C[C@]21C | Active | inactive | –
– | CC(C)C1=C2[C@H]3CC=C(C=O)CC(=O)[C@]3(C)CC[C@@]2(C(=O)O)CC1 | – | – | inactive
– | CO[C@H]1[C@H]2[C@@H](O)O[C@@H]1[C@]1(C)CC[C@@]3(C(=O)O)CCC(C(C)C)=C3[C@H]1C[C@H]2OC | – | – | inactive
Active | O=C(O)/C(=C1/OCO/C1=C(/C(=O)O)c1ccccc1)c1ccccc1 | – | – | –
